According to publication PMC7613515, “Reading and erasing of the phosphonium analogue of trimethyllysine by epigenetic proteins” (Communications Chemistry, 2022):

System: KDM7BJmjC (M37–N483)
Assay: MALDI-TOF demethylation assay, KDM7BJmjC
Assay type: biochemical
Details: 1 hr
From the text: To investigate whether H3KP9me3 can be demethylated by other human KDM4 subfamily members, recombinant KDM4AJmjC (M1–L359) and KDM4DJmjC (M1–L358) were produced in E. coli following an adaption of literature procedures[38],[39]. […] To test the ability of KDM3 and KDM7 subfamily representatives to demethylate H3KP9me2 or H3KP9me3, KDM3AJmjC (T515–S1317) and KDM7BJmjC (M37–N483) were produced using baculovirus/sf9 and E. coli expression systems, respectively[40],[41]. The synthesis of a histone H3 mimic peptide H3KP9me2 substrate is challenging as the tri-alkylated phosphine group is susceptible to oxidation during synthesis of the protected amino acid and during SPPS requiring oxygen-free conditions. Thus, to investigate if KDM3AJmjC or KDM7BJmjC can catalyse demethylation of H3KP9me2, an appropriate H3KP9me2 substrate was prepared in situ from H3KP9me3 using KDM4EJmjC (2.0 µM), in the presence of KDM3AJmjC (2.0 µM) or KDM7BJmjC (2.0 µM).
A Bruker Daltonics MALDI-TOF/TOF AutoflexSpeed machine and Bruker MTP 384 target plates (polished steel BC, Part: 8280781) were used. The machine was controlled using Flex control (v. 3.4 build 135.10) and Compass for flex series (v. 1.4) software. Measurements were in the positive ion mode with the reflectron mode enabled. […] Samples were then analysed by MALDI-TOF. […]

ARTKQTAR(KPme3)STGGKA [H3KP9me3, histone H3 residues 1–15 with trimethylphosphonium lysine analogue at position 9]
demethylation in combination with KDM4EJmjC (KDM7BJmjC 2.0 µM plus KDM4EJmjC 2.0 µM, peptide 5.0 µM): produced H3KP9me2 (due to KDM4EJmjC catalysis), but did not result in masses consistent with H3KP9me1 or H3KP9
demethylation (KDM7BJmjC 2.0 µM, H3KP9me2 prepared in situ with KDM4EJmjC): do not catalyse demethylation of H3K9me3 (as anticipated) or H3KP9me3
